According to the supplement of paper PMC10307832:

Key:
Assay in all cases: relative viability (nuclei count vs DMSO), 5 days (fraction); higher = more cells survive
[1] = compound: O=c1[nH]cc(F)c(=O)[nH]1 [5-Fluorouracil] + NC(=O)Nc1cc(-c2cccc(F)c2)sc1C(=O)N[C@H]1CCCNC1 [AZD7762] (partner 0.2 µM)
In short: (§1)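 Lung cancer cell lines were pin-tool dosed in 1536-well plates on the day after seeding, with either a lone drug or a fixed anchor-drug dose plus five library-drug doses (not always all listed) in √10 steps. Nuclei were counted on 4× images after 5 days. Relative viability is the ratio of treated-well to vehicle-well nuclei counts, with each value a median of duplicate plates.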

[2] = compound: CN[C@@H]1C[C@H]2O[C@@](C)([C@@H]1OC)n1c3ccccc3c3c4c(c5c6ccccc6n2c5c31)C(=O)NC4 [Staurosporine] + COc1cc2c(Oc3ccc(NC(=O)C4(C(=O)Nc5ccc(F)cc5)CC4)cc3F)ccnc2cc1OCCCN1CCOCC1 [Foretinib] (partner 0.25 µM)
In short: as §1

[3] = compound: CC1=C(CC(=O)O)c2cc(F)ccc2/C1=C\c1ccc([S+](C)[O-])cc1 [Sulindac] + COc1cc2c(Oc3ccc(NC(=O)C4(C(=O)Nc5ccc(F)cc5)CC4)cc3F)ccnc2cc1OCCCN1CCOCC1 [Foretinib] (partner 0.25 µM)
In short: as §1

[4] = compound: CN[C@@H]1C[C@H]2O[C@@](C)([C@@H]1OC)n1c3ccccc3c3c4c(c5c6ccccc6n2c5c31)C(=O)NC4 [Staurosporine] + CCNC(=O)c1noc(-c2cc(C(C)C)c(O)cc2O)c1-c1ccc(CN2CCOCC2)cc1 [Luminespib] (partner 0.01 µM)
In short: as §1

| Cell Line | relative viability ([1]; first compound 0.02 µM) | relative viability ([1]; first compound 0.2 µM) | relative viability ([1]; first compound 0.6325 µM) | relative viability ([1]; first compound 2 µM) | relative viability ([2]; first compound 0.005 µM) | relative viability ([2]; first compound 0.01581 µM) | relative viability ([2]; first compound 0.05 µM) | relative viability ([2]; first compound 0.1581 µM) | relative viability ([2]; first compound 0.5 µM) | relative viability ([3]; first compound 0.08 µM) | relative viability ([3]; first compound 0.253 µM) | relative viability ([3]; first compound 0.8 µM) | relative viability ([3]; first compound 2.53 µM) | relative viability ([3]; first compound 8 µM) | relative viability ([4]; first compound 0.005 µM) | relative viability ([4]; first compound 0.01581 µM) | relative viability ([4]; first compound 0.05 µM) | relative viability ([4]; first compound 0.1581 µM) | relative viability ([4]; first compound 0.5 µM) |
| --- | --- | --- | --- | --- | --- | --- | --- | --- | --- | --- | --- | --- | --- | --- | --- | --- | --- | --- | --- |
| NCI-H650 | 0.883 | 0.464 | 0.328 | 0.422 | 0.687 | 0.273 | 0.257 | 0.289 | 0.256 | 0.926 | 1 | 0.997 | 0.994 | 1.19 | 0.474 | 0.248 | 0.235 | 0.11 | 0.092 |
| NCI-H596 | 1.23 | 0.981 | 0.371 | 0.356 | 1.32 | 0.839 | 0.587 | 0.297 | 0.305 | 0.796 | 1.05 | 0.928 | 0.97 | 0.892 | 1.19 | 0.719 | 0.509 | 0.237 | 0.3 |
| NCI-H2087 | 1.42 | 1.01 | 0.606 | 0.408 | 0.863 | 0.561 | 0.252 | 0.112 | 0.0962 | 1.44 | 1.1 |  | 1.22 | 1.29 | 0.151 | 0.139 | 0.112 | 0.112 | 0.0949 |
| NCI-H2342 | 0.473 | 0.622 | 0.557 | 0.546 | 1.01 | 0.816 | 0.486 | 0.516 | 0.4 | 0.86 | 0.952 | 1.02 | 0.948 | 1.07 | 0.843 | 0.69 | 0.49 | 0.47 | 0.334 |
| RERF-LC-KJ | 0.973 |  | 0.948 | 0.893 | 0.876 | 0.824 | 0.702 | 0.491 | 0.191 | 1.03 | 0.934 | 0.65 | 0.856 | 0.927 | 0.97 | 0.671 | 0.266 | 0.222 | 0.237 |
| HOP-62 | 0.636 | 1.06 | 0.522 | 0.473 | 0.801 | 0.233 | 0.142 | 0.125 | 0.119 | 1.18 | 1.1 |  | 1.23 | 1.25 | 0.949 | 0.426 | 0.189 | 0.134 | 0.109 |
| NCI-H2126 | 0.995 | 0.249 | 0.209 | 0.256 | 1.35 | 0.69 | 0.634 | 0.613 | 0.297 | 1.2 | 1.18 | 1.06 | 1.01 | 1.14 | 0.547 | 0.318 | 0.252 | 0.207 | 0.207 |
| NCI-H1793 | 0.344 | 0.488 | 0.409 | 0.332 | 0.784 |  | 0.474 | 0.217 | 0.353 | 0.759 | 0.808 | 0.54 | 0.748 | 0.736 | 0.252 |  | 0.188 | 0.131 | 0.13 |
| H3255 | 0.98 | 0.949 | 0.696 | 0.567 | 0.884 | 0.357 | 0.292 | 0.211 | 0.183 | 0.962 | 0.853 | 0.678 | 0.879 | 0.827 | 0.771 | 0.513 | 0.44 | 0.266 | 0.212 |
| EMC-BAC-2 | 1.14 | 1.22 | 1.11 | 1.01 | 0.397 | 0.344 | 0.252 | 0.23 | 0.106 | 0.953 | 1.05 | 0.892 | 1.02 | 1.08 | 0.844 | 0.33 | 0.24 | 0.216 | 0.211 |
| CAL-12T | 0.685 | 0.588 | 0.421 | 0.421 | 0.523 | 0.319 | 0.186 | 0.168 | 0.121 | 1.22 | 1.22 | 0.911 | 1.12 | 1.27 | 0.0969 | 0.0675 | 0.0596 | 0.109 | 0.109 |
| NCI-H727 | 0.697 | 0.718 | 0.527 | 0.605 | 0.652 | 0.542 | 0.428 | 0.37 | 0.29 | 0.789 | 0.93 |  | 0.898 | 0.826 | 0.291 | 0.373 | 0.252 | 0.223 | 0.183 |
| NCI-H1355 | 0.673 | 0.37 | 0.231 | 0.198 | 0.963 | 0.415 | 0.468 | 0.221 | 0.221 | 1.16 | 1.04 |  | 1.07 | 0.987 | 0.591 | 0.278 | 0.212 | 0.209 | 0.191 |
| PC-3 [JPC-3] | 0.815 | 0.855 | 0.908 | 0.816 | 1.07 | 0.483 | 0.525 | 0.359 | 0.4 | 1.12 | 1.11 | 1.14 | 1.09 | 1.05 | 0.628 | 0.474 | 0.319 | 0.323 | 0.272 |
| LK-2 | 0.482 | 0.486 | 0.153 | 0.188 | 1.07 |  | 1.09 | 0.437 | 0.409 | 1.73 | 1.45 |  |  | 1.21 | 0.202 |  | 0.187 | 0.153 | 0.172 |
| NCI-H1734 | 0.539 | 0.613 | 0.54 | 0.314 | 0.577 | 0.453 | 0.317 | 0.137 | 0.156 | 0.864 | 0.956 |  | 1.03 | 0.958 | 0.112 | 0.0831 | 0.511 | 0.0656 | 0.0444 |
| NCI-H441 | 1.18 | 0.857 | 0.402 | 0.317 | 0.822 | 0.503 | 0.354 | 0.215 | 0.194 | 0.992 | 1.15 | 0.86 | 1 | 1.24 | 0.36 | 0.216 | 0.195 | 0.231 | 0.148 |
